pIC50, pKi: −log10 of the molar value.
Biological target: T1, Proprotein convertase subtilisin/kexin type 6 (Homo sapiens, UniProt P29122)
T1 sequence (P29122 whole entry): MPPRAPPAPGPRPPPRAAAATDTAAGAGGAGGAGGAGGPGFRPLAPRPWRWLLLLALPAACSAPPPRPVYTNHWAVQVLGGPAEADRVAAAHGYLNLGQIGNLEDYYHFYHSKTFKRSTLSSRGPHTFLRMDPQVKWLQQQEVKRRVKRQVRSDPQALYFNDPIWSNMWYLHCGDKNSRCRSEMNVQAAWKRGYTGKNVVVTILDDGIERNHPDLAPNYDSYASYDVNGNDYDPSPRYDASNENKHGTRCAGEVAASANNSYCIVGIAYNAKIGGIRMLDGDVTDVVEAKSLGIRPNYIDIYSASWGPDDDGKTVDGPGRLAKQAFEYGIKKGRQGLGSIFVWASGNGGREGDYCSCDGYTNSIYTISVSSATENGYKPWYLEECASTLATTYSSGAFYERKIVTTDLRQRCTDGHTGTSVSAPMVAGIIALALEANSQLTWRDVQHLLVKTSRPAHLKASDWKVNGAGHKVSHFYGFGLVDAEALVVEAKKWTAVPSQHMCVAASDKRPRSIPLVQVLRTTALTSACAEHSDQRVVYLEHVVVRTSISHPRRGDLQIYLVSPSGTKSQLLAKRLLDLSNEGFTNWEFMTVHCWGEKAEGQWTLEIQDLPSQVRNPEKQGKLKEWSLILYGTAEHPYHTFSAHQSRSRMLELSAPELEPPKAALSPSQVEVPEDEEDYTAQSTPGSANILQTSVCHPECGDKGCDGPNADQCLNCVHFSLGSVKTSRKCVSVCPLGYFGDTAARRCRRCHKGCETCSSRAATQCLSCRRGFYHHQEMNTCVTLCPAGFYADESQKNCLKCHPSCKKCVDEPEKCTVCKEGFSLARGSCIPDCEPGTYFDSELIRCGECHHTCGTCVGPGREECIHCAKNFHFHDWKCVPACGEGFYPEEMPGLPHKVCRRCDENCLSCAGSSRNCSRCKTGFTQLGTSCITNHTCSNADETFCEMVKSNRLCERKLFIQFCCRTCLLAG
Assay: Inhibition of human PACE4 expressed in Drosophila schneider 2 cells by fluorescence assay
Format: cell-based
Conditions: not given

| SMILES | pKi |
| --- | --- |
| CC(C)[C@H](NC(=O)[C@H](CCCNC(=N)N)NC(=O)Cc1ccccc1)C(=O)N[C@@H](CCCNC(=N)N)C(=O)NCc1ccc(C(=N)N)cc1 | 9.22 |
| CC(C)[C@H](NC(=O)[C@H](CCCNC(=N)N)NC(=O)Cc1ccccc1)C(=O)N[C@@H](CCCNC(=N)N)C(=O)NCC1CCN(C(=N)N)CC1 | 7.17 |
| CCCCCCCCCC(=O)N[C@@H](CCCN=C(N)N)C(=O)N[C@H](C(=O)N[C@@H](CCCN=C(N)N)C(=O)NCc1ccc(C(=N)N)cc1)C(C)C | 8.52 |
| CC(=O)N[C@@H](CCCNC(=N)N)C(=O)N[C@H](C(=O)N[C@@H](CCCNC(=N)N)C(=O)NCc1ccc(C(=N)N)cc1)C(C)C | 8.62 |

Biological target: Coagulation factor X (Homo sapiens, UniProt P00742)
Sequence (P00742 41-179 limits assumed): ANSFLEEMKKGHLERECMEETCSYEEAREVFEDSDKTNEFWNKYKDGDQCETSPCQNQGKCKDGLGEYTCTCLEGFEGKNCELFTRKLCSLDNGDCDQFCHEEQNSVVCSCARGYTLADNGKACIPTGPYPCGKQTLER
Sequence (P00742 235-488 limits assumed): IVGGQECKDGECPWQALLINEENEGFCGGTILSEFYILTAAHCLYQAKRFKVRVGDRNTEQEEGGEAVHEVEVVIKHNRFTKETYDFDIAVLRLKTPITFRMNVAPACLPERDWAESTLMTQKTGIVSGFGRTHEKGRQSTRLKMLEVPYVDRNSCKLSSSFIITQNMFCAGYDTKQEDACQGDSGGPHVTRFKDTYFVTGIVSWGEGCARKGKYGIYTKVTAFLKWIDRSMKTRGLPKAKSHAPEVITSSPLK
Assay: Inhibition of factor 10a
Conditions: not given

| SMILES | pKi |
| --- | --- |
| CC(C)[C@H](NC(=O)[C@H](CCCNC(=N)N)NC(=O)Cc1ccccc1)C(=O)N[C@@H](CCCNC(=N)N)C(=O)NCc1ccc(C(=N)N)cc1 | 4.40 |
| CC(C)[C@H](NC(=O)[C@H](CCCNC(=N)N)NC(=O)Cc1ccccc1)C(=O)N[C@@H](CCCNC(=N)N)C(=O)NCC1CCN(C(=N)N)CC1 | 3.91 |

Biological target: T2, Neuroendocrine convertase 2 (Homo sapiens, UniProt P16519)
T2 sequence (P16519 whole entry): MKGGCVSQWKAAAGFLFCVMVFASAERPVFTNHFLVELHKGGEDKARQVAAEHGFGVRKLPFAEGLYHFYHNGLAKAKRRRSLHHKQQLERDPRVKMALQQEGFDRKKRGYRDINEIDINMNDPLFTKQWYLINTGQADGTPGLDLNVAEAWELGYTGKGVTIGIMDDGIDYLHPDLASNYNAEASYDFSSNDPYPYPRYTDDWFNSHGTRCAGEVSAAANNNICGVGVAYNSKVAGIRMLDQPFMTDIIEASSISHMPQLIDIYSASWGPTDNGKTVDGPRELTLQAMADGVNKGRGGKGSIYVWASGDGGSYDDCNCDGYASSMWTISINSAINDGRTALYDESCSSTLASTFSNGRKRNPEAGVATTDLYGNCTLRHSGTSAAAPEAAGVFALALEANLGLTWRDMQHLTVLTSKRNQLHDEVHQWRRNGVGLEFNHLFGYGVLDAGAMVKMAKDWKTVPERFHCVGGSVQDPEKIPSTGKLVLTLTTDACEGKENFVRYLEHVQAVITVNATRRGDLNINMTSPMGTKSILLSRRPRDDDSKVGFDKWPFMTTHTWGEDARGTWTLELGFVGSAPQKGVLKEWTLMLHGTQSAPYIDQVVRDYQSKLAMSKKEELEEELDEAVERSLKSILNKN
Assay: Inhibition of human PC2 expressed in Drosophila schneider 2 cells by fluorescence assay
Format: cell-based
Conditions: not given

| SMILES | pKi |
| --- | --- |
| CC(C)[C@H](NC(=O)[C@H](CCCNC(=N)N)NC(=O)Cc1ccccc1)C(=O)N[C@@H](CCCNC(=N)N)C(=O)NCc1ccc(C(=N)N)cc1 | 6.51 |
| CC(C)[C@H](NC(=O)[C@H](CCCNC(=N)N)NC(=O)Cc1ccccc1)C(=O)N[C@@H](CCCNC(=N)N)C(=O)NCC1CCN(C(=N)N)CC1 | < 5.00 |
| CCCCCCCCCC(=O)N[C@@H](CCCN=C(N)N)C(=O)N[C@H](C(=O)N[C@@H](CCCN=C(N)N)C(=O)NCc1ccc(C(=N)N)cc1)C(C)C | 7.26 |
| CC(=O)N[C@@H](CCCNC(=N)N)C(=O)N[C@H](C(=O)N[C@@H](CCCNC(=N)N)C(=O)NCc1ccc(C(=N)N)cc1)C(C)C | 5.86 |

System: not listed separately
Assay: cells
Format: cell-based
Conditions: Canis lupus familiaris, MDCK

| SMILES | pIC50 |
| --- | --- |
| CC(C)[C@H](NC(=O)[C@H](CCCNC(=N)N)NC(=O)Cc1ccccc1)C(=O)N[C@@H](CCCNC(=N)N)C(=O)NCc1ccc(C(=N)N)cc1 | 5.00 |

Biological target: Plasminogen (Homo sapiens, UniProt P00747)
Sequence (P00747 97-580 limits assumed): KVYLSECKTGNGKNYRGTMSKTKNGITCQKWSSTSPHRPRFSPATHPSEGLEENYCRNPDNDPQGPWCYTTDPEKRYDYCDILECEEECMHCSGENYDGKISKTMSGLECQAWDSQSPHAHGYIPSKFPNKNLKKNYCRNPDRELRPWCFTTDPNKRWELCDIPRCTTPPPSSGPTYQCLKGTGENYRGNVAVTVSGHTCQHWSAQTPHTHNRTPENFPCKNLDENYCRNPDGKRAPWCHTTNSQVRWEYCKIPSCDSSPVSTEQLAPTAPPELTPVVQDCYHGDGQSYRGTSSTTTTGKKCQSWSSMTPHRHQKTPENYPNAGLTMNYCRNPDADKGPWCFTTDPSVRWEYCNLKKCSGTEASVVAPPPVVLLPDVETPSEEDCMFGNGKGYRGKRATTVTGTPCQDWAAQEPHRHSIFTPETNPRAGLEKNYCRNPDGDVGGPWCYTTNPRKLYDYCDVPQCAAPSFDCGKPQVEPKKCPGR
Sequence (P00747 581-810 limits assumed): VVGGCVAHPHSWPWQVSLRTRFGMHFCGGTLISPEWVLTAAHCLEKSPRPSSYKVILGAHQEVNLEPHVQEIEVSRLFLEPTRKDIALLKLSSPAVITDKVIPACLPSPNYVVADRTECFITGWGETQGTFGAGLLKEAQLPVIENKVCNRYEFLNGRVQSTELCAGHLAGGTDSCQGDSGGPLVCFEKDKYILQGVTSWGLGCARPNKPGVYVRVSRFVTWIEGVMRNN
Assay: Inhibition of plasmin
Conditions: not given

| SMILES | pKi |
| --- | --- |
| CC(C)[C@H](NC(=O)[C@H](CCCNC(=N)N)NC(=O)Cc1ccccc1)C(=O)N[C@@H](CCCNC(=N)N)C(=O)NCc1ccc(C(=N)N)cc1 | 5.22 |
| CC(C)[C@H](NC(=O)[C@H](CCCNC(=N)N)NC(=O)Cc1ccccc1)C(=O)N[C@@H](CCCNC(=N)N)C(=O)NCC1CCN(C(=N)N)CC1 | < 3.00 |

Biological target: T3, Neuroendocrine convertase 1 (Homo sapiens, UniProt P29120)
T3 sequence (P29120 whole entry): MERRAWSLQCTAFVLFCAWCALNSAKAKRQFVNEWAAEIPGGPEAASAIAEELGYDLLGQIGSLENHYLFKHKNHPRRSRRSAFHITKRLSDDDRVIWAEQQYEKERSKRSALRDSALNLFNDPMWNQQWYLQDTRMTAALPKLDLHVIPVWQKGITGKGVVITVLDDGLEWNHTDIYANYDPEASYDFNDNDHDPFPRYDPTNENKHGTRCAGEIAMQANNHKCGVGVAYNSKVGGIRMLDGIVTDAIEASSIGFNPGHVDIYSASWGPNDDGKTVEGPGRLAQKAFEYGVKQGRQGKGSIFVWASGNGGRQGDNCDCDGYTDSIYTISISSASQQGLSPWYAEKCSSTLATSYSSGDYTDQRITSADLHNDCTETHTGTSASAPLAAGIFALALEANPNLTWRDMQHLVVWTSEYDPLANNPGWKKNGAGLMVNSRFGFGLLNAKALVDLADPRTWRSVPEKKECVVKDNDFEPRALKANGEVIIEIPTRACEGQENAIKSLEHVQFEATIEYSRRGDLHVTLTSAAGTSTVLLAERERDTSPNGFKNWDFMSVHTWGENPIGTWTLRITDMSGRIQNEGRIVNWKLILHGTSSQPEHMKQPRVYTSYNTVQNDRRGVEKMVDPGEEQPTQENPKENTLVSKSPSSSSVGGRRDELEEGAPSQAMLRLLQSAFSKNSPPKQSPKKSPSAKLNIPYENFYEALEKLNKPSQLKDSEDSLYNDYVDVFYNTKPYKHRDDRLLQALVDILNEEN
Assay: Inhibition of human PC1/3 expressed in Drosophila schneider 2 cells by fluorescence assay
Format: cell-based
Conditions: not given

| SMILES | pKi |
| --- | --- |
| CC(C)[C@H](NC(=O)[C@H](CCCNC(=N)N)NC(=O)Cc1ccccc1)C(=O)N[C@@H](CCCNC(=N)N)C(=O)NCc1ccc(C(=N)N)cc1 | 9.12 |
| CC(C)[C@H](NC(=O)[C@H](CCCNC(=N)N)NC(=O)Cc1ccccc1)C(=O)N[C@@H](CCCNC(=N)N)C(=O)NCC1CCN(C(=N)N)CC1 | 7.15 |
| CCCCCCCCCC(=O)N[C@@H](CCCN=C(N)N)C(=O)N[C@H](C(=O)N[C@@H](CCCN=C(N)N)C(=O)NCc1ccc(C(=N)N)cc1)C(C)C | 8.44 |
| CC(=O)N[C@@H](CCCNC(=N)N)C(=O)N[C@H](C(=O)N[C@@H](CCCNC(=N)N)C(=O)NCc1ccc(C(=N)N)cc1)C(C)C | 8.77 |

Biological target: T4, Proprotein convertase subtilisin/kexin type 7 (Homo sapiens, UniProt Q16549)
T4 sequence (Q16549 whole entry): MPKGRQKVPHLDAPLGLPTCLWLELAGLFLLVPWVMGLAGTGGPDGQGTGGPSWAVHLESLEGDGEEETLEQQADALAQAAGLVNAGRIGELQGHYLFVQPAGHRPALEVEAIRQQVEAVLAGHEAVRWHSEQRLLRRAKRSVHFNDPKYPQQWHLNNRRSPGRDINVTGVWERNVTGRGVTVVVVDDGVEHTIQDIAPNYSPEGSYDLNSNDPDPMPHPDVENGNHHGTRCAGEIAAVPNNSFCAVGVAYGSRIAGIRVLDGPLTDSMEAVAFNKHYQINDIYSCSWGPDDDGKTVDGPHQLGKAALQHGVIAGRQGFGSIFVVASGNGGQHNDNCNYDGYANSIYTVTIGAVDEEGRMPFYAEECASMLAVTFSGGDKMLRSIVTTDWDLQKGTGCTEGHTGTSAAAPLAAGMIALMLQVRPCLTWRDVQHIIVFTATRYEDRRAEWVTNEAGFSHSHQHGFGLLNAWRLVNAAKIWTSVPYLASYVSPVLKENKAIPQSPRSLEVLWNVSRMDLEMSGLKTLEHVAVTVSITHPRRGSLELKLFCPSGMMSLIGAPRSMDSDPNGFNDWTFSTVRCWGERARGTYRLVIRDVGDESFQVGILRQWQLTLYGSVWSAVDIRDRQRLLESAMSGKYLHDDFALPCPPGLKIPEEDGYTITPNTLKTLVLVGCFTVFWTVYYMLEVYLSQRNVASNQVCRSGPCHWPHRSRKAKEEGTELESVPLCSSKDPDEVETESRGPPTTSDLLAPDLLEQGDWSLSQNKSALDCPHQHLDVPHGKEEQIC
Assay: Inhibition of human PC7 expressed in Drosophila schneider 2 cells by fluorescence assay
Format: cell-based
Conditions: not given

| SMILES | pKi |
| --- | --- |
| CC(C)[C@H](NC(=O)[C@H](CCCNC(=N)N)NC(=O)Cc1ccccc1)C(=O)N[C@@H](CCCNC(=N)N)C(=O)NCc1ccc(C(=N)N)cc1 | 5.21 |
| CC(C)[C@H](NC(=O)[C@H](CCCNC(=N)N)NC(=O)Cc1ccccc1)C(=O)N[C@@H](CCCNC(=N)N)C(=O)NCC1CCN(C(=N)N)CC1 | < 5.00 |
| CCCCCCCCCC(=O)N[C@@H](CCCN=C(N)N)C(=O)N[C@H](C(=O)N[C@@H](CCCN=C(N)N)C(=O)NCc1ccc(C(=N)N)cc1)C(C)C | 6.01 |
| CC(=O)N[C@@H](CCCNC(=N)N)C(=O)N[C@H](C(=O)N[C@@H](CCCNC(=N)N)C(=O)NCc1ccc(C(=N)N)cc1)C(C)C | 5.29 |

Biological target: Proprotein convertase subtilisin/kexin type 5 (Homo sapiens, UniProt Q92824)
Sequence (Q92824 whole entry): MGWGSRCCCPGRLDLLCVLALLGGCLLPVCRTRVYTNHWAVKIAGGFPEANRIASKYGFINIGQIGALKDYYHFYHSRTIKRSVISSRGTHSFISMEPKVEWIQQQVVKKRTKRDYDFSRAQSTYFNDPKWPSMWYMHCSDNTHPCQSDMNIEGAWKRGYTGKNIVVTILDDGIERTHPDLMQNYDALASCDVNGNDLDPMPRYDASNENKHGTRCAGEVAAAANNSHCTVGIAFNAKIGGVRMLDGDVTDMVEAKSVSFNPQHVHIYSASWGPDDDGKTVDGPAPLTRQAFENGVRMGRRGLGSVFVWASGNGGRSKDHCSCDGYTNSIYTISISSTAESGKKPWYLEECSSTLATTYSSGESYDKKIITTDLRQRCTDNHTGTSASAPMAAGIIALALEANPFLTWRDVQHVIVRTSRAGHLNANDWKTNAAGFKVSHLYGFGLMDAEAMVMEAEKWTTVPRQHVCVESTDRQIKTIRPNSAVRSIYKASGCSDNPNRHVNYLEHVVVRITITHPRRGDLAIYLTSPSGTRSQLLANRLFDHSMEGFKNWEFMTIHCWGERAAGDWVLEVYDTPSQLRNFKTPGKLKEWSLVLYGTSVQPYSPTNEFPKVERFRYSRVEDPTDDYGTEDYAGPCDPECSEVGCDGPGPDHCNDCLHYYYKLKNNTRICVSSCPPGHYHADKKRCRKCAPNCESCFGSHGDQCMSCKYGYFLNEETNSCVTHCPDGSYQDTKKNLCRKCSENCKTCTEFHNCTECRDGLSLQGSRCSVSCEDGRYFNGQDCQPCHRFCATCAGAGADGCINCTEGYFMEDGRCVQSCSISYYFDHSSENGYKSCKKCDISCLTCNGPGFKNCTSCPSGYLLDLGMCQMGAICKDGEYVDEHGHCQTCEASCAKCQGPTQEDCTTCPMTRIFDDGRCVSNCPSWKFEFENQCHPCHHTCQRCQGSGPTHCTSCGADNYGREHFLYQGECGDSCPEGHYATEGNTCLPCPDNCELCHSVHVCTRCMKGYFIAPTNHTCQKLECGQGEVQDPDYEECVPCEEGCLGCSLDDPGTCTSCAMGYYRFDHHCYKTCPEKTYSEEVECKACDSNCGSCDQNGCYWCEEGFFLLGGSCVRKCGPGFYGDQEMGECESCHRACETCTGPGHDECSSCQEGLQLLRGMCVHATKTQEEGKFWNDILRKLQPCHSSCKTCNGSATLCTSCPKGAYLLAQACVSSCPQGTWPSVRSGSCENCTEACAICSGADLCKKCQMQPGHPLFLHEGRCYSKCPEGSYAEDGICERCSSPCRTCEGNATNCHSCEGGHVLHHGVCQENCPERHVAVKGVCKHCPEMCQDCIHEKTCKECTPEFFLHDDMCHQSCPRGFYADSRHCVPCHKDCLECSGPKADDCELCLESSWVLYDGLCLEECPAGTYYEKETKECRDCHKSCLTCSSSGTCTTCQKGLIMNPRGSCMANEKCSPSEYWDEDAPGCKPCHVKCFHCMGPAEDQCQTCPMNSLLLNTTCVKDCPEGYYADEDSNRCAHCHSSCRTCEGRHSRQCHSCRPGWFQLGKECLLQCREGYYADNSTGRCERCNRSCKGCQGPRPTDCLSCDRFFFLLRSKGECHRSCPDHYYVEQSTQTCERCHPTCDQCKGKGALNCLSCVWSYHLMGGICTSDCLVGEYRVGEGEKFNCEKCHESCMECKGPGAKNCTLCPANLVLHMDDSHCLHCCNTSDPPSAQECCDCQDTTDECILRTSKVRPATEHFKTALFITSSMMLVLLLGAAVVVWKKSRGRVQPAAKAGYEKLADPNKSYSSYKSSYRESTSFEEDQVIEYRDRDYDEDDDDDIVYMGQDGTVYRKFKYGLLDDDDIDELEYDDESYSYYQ
Assay: Inhibition of human PC5/6 expressed in Drosophila schneider 2 cells by fluorescence assay
Format: cell-based
Conditions: not given

| SMILES | pKi |
| --- | --- |
| CC(C)[C@H](NC(=O)[C@H](CCCNC(=N)N)NC(=O)Cc1ccccc1)C(=O)N[C@@H](CCCNC(=N)N)C(=O)NCc1ccc(C(=N)N)cc1 | 8.80 |
| CC(C)[C@H](NC(=O)[C@H](CCCNC(=N)N)NC(=O)Cc1ccccc1)C(=O)N[C@@H](CCCNC(=N)N)C(=O)NCC1CCN(C(=N)N)CC1 | 6.76 |
| CCCCCCCCCC(=O)N[C@@H](CCCN=C(N)N)C(=O)N[C@H](C(=O)N[C@@H](CCCN=C(N)N)C(=O)NCc1ccc(C(=N)N)cc1)C(C)C | 8.20 |
| CC(=O)N[C@@H](CCCNC(=N)N)C(=O)N[C@H](C(=O)N[C@@H](CCCNC(=N)N)C(=O)NCc1ccc(C(=N)N)cc1)C(C)C | 8.44 |

Biological target: Prothrombin (Homo sapiens, UniProt P00734)
Assay: Inhibition of thrombin
Conditions: not given

| SMILES | pKi |
| --- | --- |
| CC(C)[C@H](NC(=O)[C@H](CCCNC(=N)N)NC(=O)Cc1ccccc1)C(=O)N[C@@H](CCCNC(=N)N)C(=O)NCc1ccc(C(=N)N)cc1 | 4.64 |
| CC(C)[C@H](NC(=O)[C@H](CCCNC(=N)N)NC(=O)Cc1ccccc1)C(=O)N[C@@H](CCCNC(=N)N)C(=O)NCC1CCN(C(=N)N)CC1 | 4.30 |

Biological target: Furin (Homo sapiens, UniProt P09958)
Sequence (P09958 whole entry): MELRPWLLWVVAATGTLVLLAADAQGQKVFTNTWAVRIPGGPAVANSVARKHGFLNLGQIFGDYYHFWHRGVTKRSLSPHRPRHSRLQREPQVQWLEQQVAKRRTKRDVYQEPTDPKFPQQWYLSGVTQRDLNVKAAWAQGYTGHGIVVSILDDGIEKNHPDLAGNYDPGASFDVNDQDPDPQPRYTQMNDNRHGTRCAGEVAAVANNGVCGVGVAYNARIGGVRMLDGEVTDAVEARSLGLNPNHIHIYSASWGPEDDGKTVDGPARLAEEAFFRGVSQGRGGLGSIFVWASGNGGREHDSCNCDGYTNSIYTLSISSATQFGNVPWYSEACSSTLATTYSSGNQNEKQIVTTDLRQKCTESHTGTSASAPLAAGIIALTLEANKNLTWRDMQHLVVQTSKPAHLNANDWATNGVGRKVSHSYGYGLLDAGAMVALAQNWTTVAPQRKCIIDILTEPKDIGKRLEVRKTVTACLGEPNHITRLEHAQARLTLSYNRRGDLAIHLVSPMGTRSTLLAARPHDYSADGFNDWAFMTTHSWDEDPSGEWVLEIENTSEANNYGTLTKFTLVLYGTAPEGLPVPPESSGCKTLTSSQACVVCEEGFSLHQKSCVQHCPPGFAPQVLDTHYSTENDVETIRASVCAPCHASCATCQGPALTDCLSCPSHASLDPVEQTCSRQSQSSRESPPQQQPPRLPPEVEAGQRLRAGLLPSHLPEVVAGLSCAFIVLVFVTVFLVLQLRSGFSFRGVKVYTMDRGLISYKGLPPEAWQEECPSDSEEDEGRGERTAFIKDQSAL
Assay: not given
Conditions: not given

| SMILES | pKi |
| --- | --- |
| CC(C)[C@H](NC(=O)[C@H](CCCNC(=N)N)NC(=O)Cc1ccccc1)C(=O)N[C@@H](CCCNC(=N)N)C(=O)NCC1CCN(C(=N)N)CC1 | 7.28 |
| CCCCCCCCCC(=O)N[C@@H](CCCN=C(N)N)C(=O)N[C@H](C(=O)N[C@@H](CCCN=C(N)N)C(=O)NCc1ccc(C(=N)N)cc1)C(C)C | 8.80 |
| CC(=O)N[C@@H](CCCNC(=N)N)C(=O)N[C@H](C(=O)N[C@@H](CCCNC(=N)N)C(=O)NCc1ccc(C(=N)N)cc1)C(C)C | 9.00 |

Reference: ChEMBL document CHEMBL1156804, “Potent inhibitors of furin and furin-like proprotein convertases containing decarboxylated P1 arginine mimetics” (J Med Chem, 2010)
